The source made the active and inactive calls. The rule behind the calls is not given here.
Legend:
[1] = tested on: MCF7; experiment: Cell cycle arrest in human MCF7 cells assessed as accumulation at subG1 phase at 1 uM after 36 hrs by propidium iodide staining-based flow cytometric analysis (reference value: 1.2%); type: functional
[2] = tested on: HepG2; experiment: Cell cycle arrest in human HepG2 cells assessed as accumulation at G2/M phase at 3 uM after 48 hrs by propidium iodide staining-based flow cytometric analysis (reference value: 22.4%); type: functional
[3] = tested on: MCF7; experiment: Cell cycle arrest in human MCF7 cells assessed as accumulation at G2/M phase at 5 uM after 36 hrs by propidium iodide staining-based flow cytometric analysis (reference value: 19%); type: functional
[4] = tested on: MCF7; experiment: Cell cycle arrest in human MCF7 cells assessed as accumulation at G2/M phase at 3 uM after 36 hrs by propidium iodide staining-based flow cytometric analysis (reference value: 19%); type: functional
[5] = tested on: HepG2; experiment: Antimitotic activity in human HepG2 cells assessed as disruption of microtubule network at 5 uM by DAPI staining-based laser scanning confocal microscopic analysis; type: functional, cell-based; settings: TDE = time-dependent effect
[6] = tested on: MCF7; experiment: Cell cycle arrest in human MCF7 cells assessed as accumulation at S phase at 1 uM after 36 hrs by propidium iodide staining-based flow cytometric analysis (reference value: 12.5%); type: functional
[7] = tested on: HepG2; experiment: Cell cycle arrest in human HepG2 cells assessed as accumulation at G0/G1 phase at 3 uM after 48 hrs by propidium iodide staining-based flow cytometric analysis (reference value: 65.9%); type: functional
[8] = biological target: Tubulin (Homo sapiens) (UniProt P68371+Q9H4B7+P0DPH7+P68366+Q13509+Q71U36+P04350+Q3ZCM7+P07437+P68363+Q9BQE3+Q6PEY2+Q13885+Q9BVA1+Q9BUF5); experiment: Inhibition of tubulin polymerization (unknown origin) at 3 to 10 uM after 90 mins; type: protein-complex assay
[9] = Cytotoxicity against KM mouse splenic lymphocytes assessed as growth inhibition after 72 hrs by MTT assay; settings: Splenic lymphocyte
[10] = tested on: MCF7; experiment: Cytotoxicity against human MCF7 cells assessed as growth inhibition after 72 hrs by MTT assay; type: functional, cell-based; settings: MCF7, 72 h
[11] = tested on: HepG2; experiment: Cell cycle arrest in human HepG2 cells assessed as accumulation at subG1 phase at 3 uM after 48 hrs by propidium iodide staining-based flow cytometric analysis (reference value: 1.2%); type: functional
[12] = tested on: MDA-MB-231; experiment: Cytotoxicity against human MDA-MB-231 cells assessed as growth inhibition after 72 hrs by MTT assay; type: functional, cell-based; settings: MDA-MB-231, 72 h
[13] = tested on: MCF7; experiment: Cell cycle arrest in human MCF7 cells assessed as accumulation at G0/G1 phase at 5 uM after 36 hrs by propidium iodide staining-based flow cytometric analysis (reference value: 67.3%); type: functional
[14] = tested on: MCF7; experiment: Cell cycle arrest in human MCF7 cells assessed as accumulation at subG1 phase at 3 uM after 36 hrs by propidium iodide staining-based flow cytometric analysis (reference value: 1.2%); type: functional
[15] = tested on: HepG2; experiment: Cell cycle arrest in human HepG2 cells assessed as accumulation at G2/M phase at 10 uM after 48 hrs by propidium iodide staining-based flow cytometric analysis (reference value: 22.4%); type: functional
[16] = tested on: HepG2; experiment: Cell cycle arrest in human HepG2 cells assessed as accumulation at G0/G1 phase at 10 uM after 48 hrs by propidium iodide staining-based flow cytometric analysis (reference value: 65.9%); type: functional
[17] = tested on: HepG2; experiment: Cell cycle arrest in human HepG2 cells assessed as accumulation at G2/M phase at 5 uM after 48 hrs by propidium iodide staining-based flow cytometric analysis (reference value: 22.4%); type: functional
[18] = tested on: K562; experiment: Cytotoxicity against human K562 cells assessed as growth inhibition after 72 hrs by MTT assay; type: functional, cell-based; settings: K562, 72 h
[19] = tested on: MCF7; experiment: Cell cycle arrest in human MCF7 cells assessed as accumulation at G0/G1 phase at 3 uM after 36 hrs by propidium iodide staining-based flow cytometric analysis (reference value: 67.3%); type: functional
[20] = tested on: MCF7; experiment: Cell cycle arrest in human MCF7 cells assessed as accumulation at S phase at 5 uM after 36 hrs by propidium iodide staining-based flow cytometric analysis (reference value: 12.5%); type: functional
[21] = tested on: MCF7; experiment: Cell cycle arrest in human MCF7 cells assessed as accumulation at G2/M phase at 1 uM after 36 hrs by propidium iodide staining-based flow cytometric analysis (reference value: 19%); type: functional
[22] = tested on: HepG2; experiment: Cell cycle arrest in human HepG2 cells assessed as accumulation at S phase at 5 uM after 48 hrs by propidium iodide staining-based flow cytometric analysis (reference value: 10.5%); type: functional
[23] = tested on: HepG2; experiment: Cytotoxicity against human HepG2 cells assessed as growth inhibition after 72 hrs by MTT assay; type: functional, cell-based; settings: HepG2, 72 h
[24] = tested on: HepG2; experiment: Cell cycle arrest in human HepG2 cells assessed as accumulation at subG1 phase at 5 uM after 48 hrs by propidium iodide staining-based flow cytometric analysis (reference value: 1.2%); type: functional
[25] = tested on: MCF7; experiment: Cell cycle arrest in human MCF7 cells assessed as accumulation at G0/G1 phase at 1 uM after 36 hrs by propidium iodide staining-based flow cytometric analysis (reference value: 67.3%); type: functional
[26] = tested on: HepG2; experiment: Cell cycle arrest in human HepG2 cells assessed as accumulation at subG1 phase at 10 uM after 48 hrs by propidium iodide staining-based flow cytometric analysis (reference value: 1.2%); type: functional
[27] = tested on: MCF7; experiment: Cell cycle arrest in human MCF7 cells assessed as accumulation at subG1 phase at 5 uM after 36 hrs by propidium iodide staining-based flow cytometric analysis (reference value: 1.2%); type: functional
[28] = tested on: HepG2; experiment: Cytotoxicity against adriamycin-resistant human HepG2 cells assessed as growth inhibition after 72 hrs by MTT assay; type: functional, cell-based; settings: HepG2, 72 h
[29] = tested on: HepG2; experiment: Antimitotic activity in human HepG2 cells assessed as cell morphological changes at 5 uM after 3 to 12 hrs by DAPI staining-based laser scanning confocal microscopic analysis; type: functional
[30] = tested on: MCF7; experiment: Cell cycle arrest in human MCF7 cells assessed as accumulation at S phase at 3 uM after 36 hrs by propidium iodide staining-based flow cytometric analysis (reference value: 12.5%); type: functional
[31] = tested on: HepG2; experiment: Cell cycle arrest in human HepG2 cells assessed as accumulation at S phase at 10 uM after 48 hrs by propidium iodide staining-based flow cytometric analysis (reference value: 10.5%); type: functional
[32] = tested on: HepG2; experiment: Cell cycle arrest in human HepG2 cells assessed as accumulation at S phase at 3 uM after 48 hrs by propidium iodide staining-based flow cytometric analysis (reference value: 10.5%); type: functional
[33] = tested on: HepG2; experiment: Cell cycle arrest in human HepG2 cells assessed as accumulation at G0/G1 phase at 5 uM after 48 hrs by propidium iodide staining-based flow cytometric analysis (reference value: 65.9%); type: functional

With `CC1(C)C(/C=C/c2cccc([N+](=O)[O-])c2)=Nc2ccccc21` the Activity [1] was 1.2%, the Activity [2] was 37.6% and the Activity [3] was 46.7%. For the same compound, the Activity [4] was 39.7%, the Activity [5] was “tde” and the Activity [6] was 14%. The Activity [7] was 51.3%, the inhibition [8] was “Active” and the IC50 [9] was 18.8 µM. The IC50 [10] was 0.89 µM, the Activity [11] was 2.9% and the IC50 [12] was 1.87 µM. The Activity [13] was 19.6%, the Activity [14] was 9.7% and the Activity [15] was 52.1%. For the same compound, the Activity [16] was 36.8%, the Activity [17] was 71.3% and the IC50 [18] was 4.38 µM. It also gave an Activity [19] of 40.6%, an Activity [20] of 12.3% and an Activity [21] of 28%. For the same compound, the Activity [22] was 9.9%, the IC50 [23] was 5.04 µM and the Activity [24] was 3.5%. For the same compound, the Activity [25] was 56.8%, the Activity [26] was 2.5% and the Activity [27] was 21.4%. The IC50 [28] was 2.27 µM, the Activity [29] was “Active” and the Activity [30] was 10%. The Activity [31] was 8.6%, the Activity [32] was 8.2% and the Activity [33] was 15.3%.

Source: ChEMBL document CHEMBL2434943, “Elaboration of thorough simplified vinca alkaloids as antimitotic agents based on pharmacophore similarity” (Eur J Med Chem, 2013)
